What was measured:
blood platelets = assay: Anticoagulating function for inhibiting coagulation of blood platelets (aggregometer, PRP, arachidonic acid); assay type: cell-based, rabbit (White Japanese native species); details: for Response (inhibition of coagulation of blood platelets): in vitro, arachidonic acid 50 mcg/ml, rabbit PRP, 37° C., 2 minutes
Protocol: White Japanese native species male rabbits each having a body weight of from 2.5 to 4.0 kg were used. The state of health of the rabbits was checked by visual examination for such as diarrhea and scabies in the ears, and the number of blood platelets and the hematocrit value of the individual rabbits were determined using the blood taken from the auricular vein of the individual rabbits. Rabbits each having a number of blood platelets of from 30×10^4 to 50×10^4 […] and a hematocrit value of from 30 to 40% were selected and the thus selected rabbits were fed for a pre-breeding period of one week, and then the number of blood platelets and the hematocrit value of the thus bred rabbits were determined again.
Using an injection tube treated with silicone, blood was taken from the auricular artery so that the ratio of blood to a 3.8% sodium citrate solution was 9 to 1 by volume, and the content of the tube was subjected to centrifugal separation at 100 to 140 g for 10 minutes. The supernatant was separated as platelet rich plasma (PRP), and the lower phase was further subjected to centrifugal separation at 450 g or 300 g for 10 minutes to obtain a platelet poor plasma (PPP). After subjecting the PRP to centrifugal separation at 800 g for 10 minutes, precipitated blood platelets were rinsed one time with a 5 m MEDTA deprived of Ca^2+ and MG^2+ and Hepes-Tyrode buffer (pH 7.4), and then suspended in Hepes-Tyrode buffer (pH 7.4) to obtain rinsed blood platelets. In the coagulation experiment, the number of blood platelets in PRP was directly counted by the Brecher-Cronkite method to control the same within the range of from 50×10^4 to 70×10^4 /mm^3.
Using an aggregometer, PRP was added with each of specimen drugs, followed by incubation at 37° C. for a predetermined time period (2 minutes), and an aggregation provoker (arachidonic acid, 50 mcg/ml) was added and then subjected to measurement.
The control drug used was Aspirin.

metastasis of cancer = details: experiments using animals; cited from earlier work
Test on acute toxicity = assay type: in vivo, mice; details: for acute toxicity, changes observed: mice
Protocol: The compound (I) was administered to mice in an amount of 300 mg/kg orally or abdominally.

[1] = system: cholesterol content of the blood serum; assay: Effect against hyperlipidemia (Demonstration 1): cholesterol content of blood serum; assay type: in vivo, mice; details: for Reduction Rate of Cholesterol in Blood Serum: mice, oral
Protocol: (§1) Six mice were bred with high cholesterol-cholic acid feeds for 7 days so as to induce hyperlipidemia; one half of the total dose of each compound (I) as set forth in Table 1 was orally administered at the sixth day and the other half was orally administered at the seventh day. After starving the mice for one night, the cholesterol content of the blood serum of the respective mice was determined. It was judged that the tested compound had the desired activity (of reducing fat content of blood) when the cholesterol content of the blood serum was decreased by 15% or more as compared to that of the mice of the control group.

[2] = system: lipoproteins precipitated by heparin (corresponding to the fractions of LDL and VLDL); assay: Effect against hyperlipidemia (Demonstration 2): lipoproteins precipitated by heparin (HPL, LDL and VLDL fractions) in blood serum; assay type: in vivo, mice; details: for Decrease of HPL / HPL/Cholesterol ratio: mice, oral; for HPL/Cholesterol ratio: criterion not more than 0.92
Protocol: as §1, with “group. Similar experiments were conducted as in Example 2, and it was judged that the tested compound had the desired activity (of reducing fat content in blood) when the content of lipoproteins precipitated by heparin (corresponding to the fractions of LDL and VLDL) in the blood serum of the tested group was decreased by 20% or more as compared to that of the mice of control group. Decrease of atheromic β-LDL or increase of HDL could be estimated when the ratio of lipoproteins precipitated by heparin to cholesterol (HPL/cholesterol) was not more than 0.92.” for “group.”

CC(=O)Oc1ccccc1C(=O)O [Aspirin, reference compound]
Response (inhibition of coagulation of blood platelets) (blood platelets; 2.5 γ (μg/ml)): 100
effect of inhibiting metastasis of cancer (metastasis of cancer): have the effect of inhibiting metastasis of cancer

COc1ccc(-c2nc3sc4ccccc4n3c(=O)c2-c2ccccc2)cc1 [Compound (I), 2-(p-methoxyphenyl)-3-phenylpyrimido[2,1-b]benzothiazole-4(4H)-one]
efficacy relative to control drug Aspirin (blood platelets; from Table 3): 2.5 times
Response (inhibition of coagulation of blood platelets) (blood platelets; 1 γ (μg/ml)): 100
acute toxicity, changes observed (Test on acute toxicity; abdominal, 200 mg/kg): No changes were observed
acute toxicity, changes observed (Test on acute toxicity; oral, 300 mg/kg): No changes were observed
toxicity on successive administration, changes observed (Test on acute toxicity; mouse, in vivo, 100 mg/kg): no substantial change was observed
pharmaceutical efficacy relative to control agent D-thyroxine ([1]; from Table 1, fraction of D-thyroxine efficacy): about 2/5
Reduction Rate of Cholesterol in Blood Serum ([1]; 10 mg/kg): 11%
Reduction Rate of Cholesterol in Blood Serum ([1]; 25 mg/kg): 16%
pharmaceutical efficacy relative to control agent D-thiroxicine ([2]; from Table 2, fraction of D-thiroxicine efficacy): about 2/5
Decrease of HPL ([2]; 10 mg/kg): 17%
Decrease of HPL ([2]; 25 mg/kg): 23%
HPL/Cholesterol ratio ([2]; 25 mg/kg): 0.92

N[C@H](Cc1cc(I)c(Oc2cc(I)c(O)c(I)c2)c(I)c1)C(=O)O [D-thyroxine, reference compound]
Reduction Rate of Cholesterol in Blood Serum ([1]; 10 mg/kg): 30%
Decrease of HPL ([2]; 10 mg/kg): 35%
HPL/Cholesterol ratio ([2]; 10 mg/kg): 0.93

OCCN(CCO)c1nc(N2CCCCC2)c2nc(N(CCO)CCO)nc(N3CCCCC3)c2n1 [dipyridamol]
effect of inhibiting metastasis of cancer (metastasis of cancer): have the effect of inhibiting metastasis of cancer

Clc1ccccc1CN1CCc2sccc2C1 [ticlopidine]
effect of inhibiting metastasis of cancer (metastasis of cancer): have the effect of inhibiting metastasis of cancer
